{
  "source": "patent US6376480B1",
  "about": "“Vitamin D derivatives with substituents at C-25, process for their production, intermediate products and use for the production of pharmaceutical agents” (Schering Aktiengesellschaft, priority 1995, dated 2002)",
  "key": {"[1]": {"test_system": "healthy male rats", "assay": "acute hypercalcemic action after one-time subcutaneous administration", "assay_type": "in vivo, rat", "details": "DR = test substance dose/calcitriol dose for comparable effects, serum-calcium", "protocol": "To determine the acute hypercalcemic action of various calcitriol derivatives, the test that is described below is carried out:\nThe action of control (solution base), reference substance (1,25(OH)2—D3=calcitriol) and test substance is tested in each case after one-time subcutaneous administration in groups of 10 healthy male rats (140-170 g). During the testing time, the rats are kept in special cages to determine the excretion of water and mineral substances. Urine is collected in 2 fractions (0-16 hours and 16-22 hours). An oral dose of calcium (0.1 mmol of calcium in 6.5% alpha-hydroxypropylcellulose, 5 ml/animal) replaces at 1600 hours the calcium intake that is lacking by food deprivation. At the end of the test, the animals are killed by decapitation and exsanguinated to determine the serum-calcium values. For the primary screen test in vivo, an individual standard dose (200 μg/kg) is tested. For selected substances, the result is supported by establishing a dose-effect relation.\nA hypercalcemic action is shown in serum-calcium level values that are higher than in the control.\nThe significance of differences between substance groups and controls and between test substance and reference substance are supported with suitable statistical processes."}, "[2]": {"test_system": "HL 60 cells", "assay": "differentiation induction of HL 60 cells to macrophages (NBT reduction)", "assay_type": "cell-based, human", "details": "DR = test substance dose/calcitriol dose for comparable semi-maximum effects; 96 hours incubation", "protocol": "It is known in the literature (Mangelsdorf, D. J. et al., J. Cell. Biol. 98: 391-398 (1984)), that the treatment of human leukemia cells (promyelocyte cell line HL 60) in vitro with calcitriol induces the differentiation of cells to macrophages.\nHL 60 cells are cultivated in tissue culture medium (RPMI 10% fetal calf serum) at 37° C. in an atmosphere of 5% CO2 in air.\nFor substance testing, the cells are centrifuged off, and 2.0×10^5 cells/ml in phenol red-free tissue culture medium is taken up. The test substances are dissolved in ethanol and diluted with tissue culture medium without phenol red to the desired concentration. The dilution stages are mixed with the cell suspension at a ratio of 1:10, and 100 μl each of this cell suspension that is mixed with substance is pipetted into an indentation of a 96-hole plate. For control, a cell suspension is mixed analogously with the solvent.\nAfter incubation for 96 hours at 37° C. in 5% CO2 in air, 100 μl of an NBT-TPA solution (nitro blue tetrazolium (NBT), final concentration in the batch of 1 mg/ml, tetradecanoyl phorbolmyristate-13-acetate (TPA), final concentration in the batch of 2×10^−7 mol/l) is pipetted into each indentation of the 96-hole plate in the cell suspension.\nBy incubation for 2 hours at 37° C. and 5% CO2 in air, NBT is reduced to insoluble formazan because of the intracellular oxygen radical release, stimulated by TPA, in the cells that are differentiated to macrophages.\nTo complete the reaction, the indentations of the 96-hole plate are suctioned off, and the cells are affixed to the bottom of the plate by adding methanol and dried after affixing. To dissolve the intracellular formazan crystals that are formed, 100 μl of potassium hydroxide (2 mol/l) and 100 μl of dimethyl sulfoxide are pipetted into-each indentation and ultrasonically treated for 1 minute. The concentration of formazan is measured by spectrophotometry at 650 nm.\nAs a yardstick for the differentiation induction of HL 60 cells to macrophages, the concentration of formed formazan applies."}, "[3]": {"molecular_target": "T1, calcitriol receptor (Sus scrofa, UniProt A3RGC1)", "T1 sequence (A3RGC1 1-427)": "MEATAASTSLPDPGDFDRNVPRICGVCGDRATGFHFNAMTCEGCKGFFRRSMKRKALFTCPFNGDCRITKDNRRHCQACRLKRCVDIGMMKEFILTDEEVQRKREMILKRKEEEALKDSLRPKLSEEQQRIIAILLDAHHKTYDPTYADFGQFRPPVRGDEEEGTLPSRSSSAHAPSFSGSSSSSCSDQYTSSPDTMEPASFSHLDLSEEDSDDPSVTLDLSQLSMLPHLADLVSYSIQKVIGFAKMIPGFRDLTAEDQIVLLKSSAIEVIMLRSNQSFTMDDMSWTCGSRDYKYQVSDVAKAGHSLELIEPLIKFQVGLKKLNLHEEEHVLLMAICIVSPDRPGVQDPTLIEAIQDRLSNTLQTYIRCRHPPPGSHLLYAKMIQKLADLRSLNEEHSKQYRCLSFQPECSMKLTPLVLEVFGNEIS", "assay": "calcitriol-receptor test (competition with 3H-calcitriol)", "details": "quotient of concentrations of test substance and calcitriol for 50% competition, receptor protein from intestines of juvenile pigs", "experimental": "The vitamin D activity of the substances according to the invention is determined with the aid of the calcitriol-receptor test. It is carried out with use of a specific receptor protein from the intestines of juvenile pigs.\nThen, the samples are centrifuged at 10,000×g for 5 minutes at 4° C. The supernatant is decanted and measured in a β-counter after 1 hour of equilibration in Picofluor 15™.\nThe competition curves that are obtained with various concentrations of test substance as well as of reference substance (unlabeled calcitriol) at constant concentration of the reference substance (^3H-calcitriol) are placed in relation to one another and a competition factor (KF) is determined.\nIt is defined as a quotient of the concentrations of the respective test substance and the reference substance, which are necessary for 50% competition: [formula]"}, "[4]": {"test_system": "HL 60 cells", "assay": "antagonism of the action of calcitriol in HL 60 cells", "assay_type": "cell-based, human"}},
  "data": [
    {"smiles": "C=C1/C(=C\\C=C2/CCC[C@]3(C)[C@@H]([C@H](C)CCCC(C)(C)O)CC[C@@H]23)C[C@@H](O)C[C@@H]1O", "note": "[Calcitriol, 1α,25-dihydroxy vitamin D3, reference compound]", "values": [
      {"measurement": "dose ratio for hypercalcemia", "setting": "[1]", "result": 1},
      {"measurement": "Dose Ratio for Differentiation Induction in HL 60 Cells", "setting": "[2]", "result": 1}
    ]},
    {"smiles": "C=C1C(=CC=C2CCCC3(C)C2CCC3C(C)C=CC(O)C2(C(C)=O)CC2)CC(O)CC1O", "note": "[Compound 7b, (5Z,7E,22E)-(1S,3R,24R)-25-Acetyl-26,27-cyclo-9,10-secocholesta-5,7,10(19),22-tetraene-1,3,24-triol]", "values": [
      {"measurement": "dose ratio for hypercalcemia", "setting": "[1]", "result": 300},
      {"measurement": "Dose Ratio for Differentiation Induction in HL 60 Cells", "setting": "[2]", "result": 0.5},
      {"measurement": "Competition Factor KF for Receptor Bonding", "setting": "[3]", "result": 1}
    ]},
    {"smiles": "CCCCCCC(=O)C1([C@@H](O)/C=C/[C@@H](C)[C@H]2CC[C@H]3/C(=C/C=C4C[C@@H](O)C[C@H](O)C4)CCC[C@]23C)CC1", "note": "[Compound 64a, (7E,22E)-(1R,3R,24S)-25-(1-Oxoheptyl)-26,27-cyclo-19-nor-9,10-secocholesta-5,7,22-triene-1,3,24-triol]", "values": [
      {"measurement": "Dose Ratio for Differentiation Induction in HL 60 Cells", "setting": "[2]", "result": 120},
      {"measurement": "Competition Factor KF for Receptor Bonding", "setting": "[3]", "result": 3.5},
      {"measurement": "antagonism of the action of calcitriol in HL 60 cells", "setting": "[4]", "result": "antagonize the action of calcitriol"}
    ]},
    {"smiles": "C=C1/C(=C\\C=C2/CCC[C@]3(C)[C@@H]([C@H](C)/C=C/[C@@H](O)C4(C(=O)C#CCCC)CC4)CC[C@@H]23)C[C@@H](O)C[C@@H]1O", "note": "[Compound 19b, (5Z,7E,22E)-(1S,3R,24R)-25-(1-Oxo-2-hexinyl)-26,27-cyclo-9,10-secocholesta-5,7,10(19),22-tetraene-1,3,24-triol]", "values": [
      {"measurement": "dose ratio for hypercalcemia", "setting": "[1]", "result": "> 300"},
      {"measurement": "Dose Ratio for Differentiation Induction in HL 60 Cells", "setting": "[2]", "result": 1.5},
      {"measurement": "Competition Factor KF for Receptor Bonding", "setting": "[3]", "result": 2}
    ]},
    {"smiles": "C=C1/C(=C\\C=C2/CCC[C@]3(C)[C@@H]([C@H](C)/C=C/[C@@H](O)C4(/C=C/C(=O)OC(C)(C)C)CC4)CC[C@@H]23)C[C@@H](O)C[C@@H]1O", "note": "[Compound 26b, [5Z,7E,22E,25(E)]-(1S,3R,24R)-25-[3-(1,1-Dimethylethoxy)-3-oxo-1-propenyl]-26,27-cyclo-9,10-secocholesta-5,7,10(19),22-tetraene-1,3,24-triol]", "values": [
      {"measurement": "Dose Ratio for Differentiation Induction in HL 60 Cells", "setting": "[2]", "result": ">1000"},
      {"measurement": "Competition Factor KF for Receptor Bonding", "setting": "[3]", "result": 4},
      {"measurement": "antagonism of the action of calcitriol in HL 60 cells", "setting": "[4]", "result": "antagonize the action of calcitriol"}
    ]},
    {"smiles": "C=C1/C(=C\\C=C2/CCC[C@]3(C)[C@@H]([C@H](C)/C=C/[C@@H](O)C4(C(=O)C(C)(C)C)CC4)CC[C@@H]23)C[C@@H](O)C[C@@H]1O", "note": "[Compound 15b, (5Z,7E,22E)-(1S,3R,24R)-25-(2,2-Dimethyl-1-oxopropyl)-26,27-cyclo-9,10-secocholesta-5,7,10(19),22-tetraene-1,3,24-triol]", "values": [
      {"measurement": "dose ratio for hypercalcemia", "setting": "[1]", "result": 300},
      {"measurement": "Dose Ratio for Differentiation Induction in HL 60 Cells", "setting": "[2]", "result": 1.1},
      {"measurement": "Competition Factor KF for Receptor Bonding", "setting": "[3]", "result": 6}
    ]},
    {"smiles": "C=C1/C(=C\\C=C2/CCC[C@]3(C)[C@@H]([C@H](C)/C=C/[C@@H](O)C4(C(=O)CCC)CC4)CC[C@@H]23)C[C@@H](O)C[C@@H]1O", "note": "[Compound 8b, (5Z,7E,22E)-(1S,3R,24R)-25-(1-oxobutyl)-26,27-cyclo-9,10-secocholesta-5,7,10(19),22-tetraene-1,3,24-triol]", "values": [
      {"measurement": "dose ratio for hypercalcemia", "setting": "[1]", "result": 100},
      {"measurement": "Dose Ratio for Differentiation Induction in HL 60 Cells", "setting": "[2]", "result": 0.9},
      {"measurement": "Competition Factor KF for Receptor Bonding", "setting": "[3]", "result": 2}
    ]}
  ]
}
